Results on 1 molecule are retold here after PMC7139549, “TLD1433 Photosensitizer Inhibits Conjunctival Melanoma Cells in Zebrafish Ectopic and Orthotopic Tumour Models” (Cancers, 2020).

The structures appear in SMILES notation. Bounds are passed on as bounds.

For assay [1], the system named is eye melanoma cells. The assay can be described thus: SRB cell viability assay, eye melanoma cells. The assay is classed as cell-based, Human. How it is done: TLD1433 is known to generate reactive oxygen species (ROS) with high quantum efficacy in many cancer cell lines. However, there is no report of the in vitro toxicity of this compound in eye melanoma (UM) cell lines. We determined the cell viability of three conjunctival melanoma cell lines (CRMM1, CRMM2 and CM2005.1), and three uveal melanoma cell lines (OMM1, OMM2.5, MEL270) in the presence of TLD1433, both in the dark or under green light irradiation (21 mW/cm^2, 19 J/cm^2, 520 nm, 15 min), and compared this viability to epidermoid carcinoma A431 and cutaneous melanoma A375 cell lines under the same conditions. […] The phototoxicity index (PI), defined as the ratio of the dark EC50 to the light EC50, was also calculated and represents the amplification of TLD1433 activity with a light trigger. […]
At day 0, cells were detached using 1mL of trypsin, resuspended in 4 mL of media and transferred to a 15 mL corning falcon tube. Cells were counted using trypan blue and BioRad® TC20™ automated cell counter (Figure 11). Dilutions of 6000 (CRMM1), 6000 (CRMM2), 8000 (CM2005.1), 6000 (OMM1), 6000 (OMM2.5), 6000 (MEL270) 8000 (A431), and 4000 (A375) cells/well were calculated from each cell suspension at a final volume of 6 mL using the following formula: Vc=(Vt×10C)/Lc where Vt = total volume of solution, C = number of cells per well/per 100 μL and Lc = live cells count (cells/mL). […]

The test system of assay [2] is other cell lines. The arrangement: method as in not given. As to conditions: reported for TLD1433 with other cell lines; ref not given; cited from earlier work.

Broadly, the EC50 is the concentration that produces a half-maximal response. On to `Cc1ccnc(-c2cc(C)ccn2)c1.Cc1ccnc(-c2cc(C)ccn2)c1.[Cl-].[Cl-].[Ru+2].c1csc(-c2ccc(-c3ccc(-c4nc5c6cccnc6c6ncccc6c5[nH]4)s3)s2)c1` [TLD1433], for which the 50% effective concentration (EC50) in assay [1] (dark, read-out: EC50 (dark toxicity)) was roughly 1 µM. Moreover, the “EC50 upon light activation (in words)” value in assay [1] (green light 19 J/cm^2) was “in the nanomolar regime”. Moreover, the PI in assay [2] is listed as greater than 1000.
